# Test: Binding affinity towards sigma receptor in guinea pig brain membrane was determined by using [3H]DTG as the radioligand
smiles,measurement,value
"OC12C3C4CC5C6C4C1C6C(C53)N2Cc1cccc(Br)c1 (stereo unspecified) [11-(3-bromobenzyl)-11-azahexacyclo[5.4.1.02,6.03,10.04,8.09,12]dodecan-1-ol]",Ki,109 nM

# — BindingDB's records for doi:10.1016/0960-894X(96)00067-4 (1996)
